Data as given in patent US20040248809A1, “Use of antagonists of the bradykinin B2 receptor for the treatment of osteoarthrosis” (Aventis Pharma Deutschland GmbH, priority 2003, published 2004).

System: MMP3 expression in the chondrosarcoma cell line SW1353
Assay: MMP-3 release from SW cells (MMP3 ELISA of cell culture supernatant)
Assay type: cell-based
Details: for MMP-3 release MW (OD 450 nm) / Relative values based on starting value: SW cells; for Relative values based on starting value: IL1α alone = 100
Protocol: For the analysis of the disease-modifying action of HOE140 in a cell culture model relevant to cartilage, the MMP3 expression was analyzed in the chondrosarcoma cell line SW1353 (ATCC: HTB 94). For the experiments, SW1353 cells were cultured under standard conditions (37° C., 5% CO2) in DMEM-Glutamax with 10% of fetal calf serum (FCS) in plastic culture bottles. After detrypsinization of the cells, 50,000 cells were inoculated per well of a 96-well flat-bottom plate in medium without FCS and preincubated with the compound HOE140 in an incubator. After one hour, the cells were stimulated by addition of human IL1-β (0.1 ng/mL, Roche) in a total volume of 300 μL. After incubation for 24 hours under standard conditions, the cell culture supernatant was taken off, centrifuged for 5 minutes and frozen at −20° C. until further analysis. The MMP3 expression in the cell culture supernatants was then analyzed by means of a commercial MMP3 ELISA test system (Amersham) according to the instructions of the manufacturer. In parallel to this, a WST cytotoxicity test was carried out with the remaining cells. For this the commercial test system of Roche was used and the measurement was carried out according to the instructions of the >manufacturer's protocol. […] Bradykinin increases the MMP3 release by more than 30%.

[1] = IL1α + bradykinin (0.1 μM) + 0.05 μM HOE140
[2] = IL1α + bradykinin (0.1 μM) + 0.1 μM HOE140
[3] = IL1α + bradykinin (0.1 μM) + 0.5 μM HOE140
[4] = IL1α + bradykinin (0.1 μM) + 1 μM HOE140

D-arginyl-L-arginyl-L-prolyl-L-prolylglycyl-3-(2-thienyl)-L-alanyl-L-seryl-(3R)-1,2,3,4-tetrahydro-3-isoquinolinecarbonyl-(2S,3aS,7aS)-octahydro-1H-indole-2-carbonyl-L-arginine [HOE140]
inhibition of the bradykinin-increased release of MMP3 (in words) (SW1353 cells, IL1 + bradykinin): inhibited by HOE140 in a dose-dependent manner
MMP-3 release MW (OD 450 nm) [1]: 458 OD 450 nm
Relative values based on starting value [1]: 139.6
MMP-3 release MW (OD 450 nm) [2]: 371 OD 450 nm
Relative values based on starting value [2]: 113.1
MMP-3 release MW (OD 450 nm) [3]: 309 OD 450 nm
Relative values based on starting value [3]: 94.2
MMP-3 release MW (OD 450 nm) [4]: 306 OD 450 nm
Relative values based on starting value [4]: 93.3
